Experimental data taken from patent US10611778B2, “Fused bicyclic inhibitors of menin-MLL interaction” (Janssen Pharmaceutica NV, priority 2016, dated 2020).

Experiments:
[1] = target: T1, Menin/MLL (terbium chelate-labeled menin, FITC-MBM1 peptide) (Homo sapiens, UniProt O00255, T541A); experiment: Menin/MLL homogenous time-resolved fluorescence (HTRF) assay; type: binding; settings: averaged values over all measurements; read-out: Menin HTRF assay (IC50)
T1 construct: Menin (a.a. 1-610-6×his tag) was labeled with terbium cryptate as follows
T1 sequence (O00255 with tags, fused parts or gaps T541A): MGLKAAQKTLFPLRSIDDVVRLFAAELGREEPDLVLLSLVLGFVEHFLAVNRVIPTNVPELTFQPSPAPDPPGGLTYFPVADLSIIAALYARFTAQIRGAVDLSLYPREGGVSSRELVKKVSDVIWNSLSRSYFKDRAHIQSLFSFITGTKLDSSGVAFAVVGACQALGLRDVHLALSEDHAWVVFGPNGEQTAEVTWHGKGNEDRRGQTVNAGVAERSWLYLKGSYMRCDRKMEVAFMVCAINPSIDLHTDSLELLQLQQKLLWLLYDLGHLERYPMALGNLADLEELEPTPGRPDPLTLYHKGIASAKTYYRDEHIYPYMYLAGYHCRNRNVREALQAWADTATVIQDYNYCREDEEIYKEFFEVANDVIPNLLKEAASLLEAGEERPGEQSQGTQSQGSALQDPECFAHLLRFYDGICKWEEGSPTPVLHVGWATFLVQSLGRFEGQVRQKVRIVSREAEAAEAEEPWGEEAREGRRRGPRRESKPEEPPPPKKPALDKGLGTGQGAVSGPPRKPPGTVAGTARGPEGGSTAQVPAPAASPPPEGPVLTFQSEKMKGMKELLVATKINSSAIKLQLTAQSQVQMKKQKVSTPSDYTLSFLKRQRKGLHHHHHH
Method in brief: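 Compound preincubated 5 min with terbium-cryptate-labeled menin (aa 1-610, His-tagged; 100 pM final), then 75 nM FITC-MBM1 peptide added, 15 min at ambient temperature; 0.5% DMSO, Tris pH 7.5 buffer. HTRF ratio 520/490 nm; % inhibition vs saturating competitor, IC50 from 11-point three-fold titration from 31 μM.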

MV-4-11 = experiment: Proliferation assay (spheroid assay) MV-4-11; type: cell-based, human; settings: Homo sapiens, MV4-11, MV-4-11; averaged values over all measurements; read-out: Spheroid assay MV-4-11 (IC50)
Method in brief: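 Cells were grown as spheroids in ultra-low attachment round-bottom wells with compound (0.3% DMSO) for 8 d at 37 °C, imaged every 4 h, with confluence as spheroid size. AUC of confluence versus time (t=0 baseline) was expressed as % of DMSO control, and absolute IC50 came from a least-squares nonlinear fit.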

KG1 = experiment: Proliferation assay (spheroid assay) KG1 control cell line; type: cell-based; settings: Homo sapiens, KG-1, averaged values over all measurements
Experimental: (§1) The anti-proliferative effect of menin/MLL protein/protein interaction inhibitor test compounds was assessed in human leukemia cell lines. The cell lines MV-4-11 and MOLM14 harbor MLL translocations and express the MLL fusion proteins MLL-AF4 and MLL-AF9, respectively, as well as the wildtype protein from the second allele. […] K562 and KG1 were used as a control cell lines containing two MLL wildtype alleles in order to exclude compounds that display general cytotoxic effects.
(§2) MV-4-11 and MOLM14 were cultured in RPMI-1640 (Sigma Aldrich) supplemented with 10% fetal bovine serum (HyClone), 2 mM L-glutamine (Sigma Aldrich) and 50 μg/ml gentamycin (Gibco). K562 were propagated in RPMI-1640 (Sigma Aldrich) supplemented with 20% fetal bovine serum (HyClone), 2 mM L-glutamine (Sigma Aldrich) and 50 μg/ml gentamycin (Gibco). KG1 were cultured in Iscove's MDM (Gibco) supplemented with 20% fetal bovine serum (HyClone), 2 mM L-glutamine (Sigma Aldrich) and 50 μg/ml gentamycin (Gibco).
(§3) In order to assess the anti-proliferative effects, 1,500 MV-4-11, 300 MOLM14, 750 K562 or 1,300 KG1 cells were seeded in 200 μl media per well in 96-well round bottom, ultra-low attachment plates (Costar, catalogue number 7007). Cell seeding numbers were chosen based on growth curves to ensure linear growth throughout the experiment. Test compounds were added at different concentrations and the DMSO content was normalized to 0.3%. Cells were incubated for 8 d at 37° C. and 5% CO2. Spheroid like growth was monitored in real-time by live-cell imaging (IncuCyteZOOM, Essenbio, 4× objective) acquiring one image every four hours for 8 d. Confluence (%) as a measure of spheroid size was determined using an integrated analysis tool.
(§4) In order to determine the cumulative effect of the test compounds over time, the area under the curve (AUC) in a plot of confluence against time was calculated. Confluence at the beginning of the experiment (t=0) was used as baseline for the AUC calculation.
(§5) Absolute IC50 values were calculated according to the following procedure: % Control=(AUC sample/AUC control)*100
(§6) AUC control=mean AUC of control values (cells without compound/DMSO as vehicle control)
(§7) A non-linear curve fit was applied using the least squares (ordinary) fit method to the plot of % control versus compound concentration. Based on this, the absolute IC50 value (half maximal inhibitory concentration of the test compound causing an anti-proliferative effect of 50% relative to the vehicle control) was calculated.

[2] = target: T2, Menin/MLL (menin, FITC-MBM1 peptide) (Homo sapiens, UniProt O00255, T541A); experiment: Menin/MLL fluorescence polarization (FP) assay; type: binding; settings: averaged values over all measurements; read-out: Menin FP assay (IC50)
T2 construct: 6xHis (C)
T2 sequence (O00255 with tags, fused parts or gaps T541A): T1 sequence (O00255 with tags, fused parts or gaps T541A)
Experimental: Pharmacological Part 1) Menin/MLL Fluorescence Polarization Assay
To a non-surface binding, black 384-well microtiter plate was added 50 nL 160× test compound in DMSO and 4 μL 2× menin in assay buffer (40 mM Tris-HCl, pH 7.5, 50 mM NaCl, 1 mM DTT and 0.001% Tween 20). After incubation of test compound and menin for 10 min at ambient temperature, 4 μL 2×FITC-MBM1 peptide (FITC-β-alanine-SARWRFPARPGT-NH2) in assay buffer was added, the microtiter plate centrifuged at 1000 rpm for 1 min and the assay mixtures incubated for 15 min at ambient temperature. The relative amount of menin: FITC-MBM1 complex present in an assay mixture is determined by measuring the fluorescence polarization (FP) of the FITC label with a BMG Pherastar plate reader (ex. 485 nm/em. 520 nm) at ambient temperature. The final concentrations of reagents in the binding assay are 100 nM menin, 5 nM FITC-MBM1 peptide and 0.625% DMSO in assay buffer. Dose-response titrations of test compounds are conducted using an 11 point, three-fold serial dilution scheme, starting at 31 μM.
Compound potencies were determined by first calculating % inhibition at each compound concentration according to equation 1: % inhibition=((HC−LC)−(FP^compound−LC))/(HC−LC))*100 (Eqn 1)
Where LC and HC are the FP values of the assay in the presence or absence of a saturating concentration of a compound that competes with FITC-MBM1 for binding to menin, and FP^compound is the measured FP value in the presence of the test compound. HC and LC FP values represent an average of at least 16 replicates per plate.
Where Bottom and Top are the lower and upper asymptotes of the dose-response curve, respectively, IC50 is the concentration of compound that yields 50% inhibition of signal and h is the Hill coefficient.

MOLM14 = experiment: Proliferation assay (spheroid assay) MOLM14; type: cell-based, human; settings: Homo sapiens, MOLM-14, MOLM14; averaged values over all measurements; read-out: Spheroid assay MOLM14 (IC50)
Experimental: as §1, §2, §3, §4, §5, §6, §7

SMILES	IC50 [1] [µM]	IC50 (MV-4-11) [µM]	IC50 [2] [µM]	IC50 (MOLM14) [µM]	IC50 (KG1) [µM]
FC(F)(F)Cc1cc2c(N3C[C@H]4CCN(CC5CCCOC5)C[C@H]4C3)ncnc2s1 (single isomer, unassigned) [Compound 99]	0.033	0.24	–	–	> 15
O=c1ccc(CN2CC[C@@H]3CN(c4ncnc5sc(CC(F)(F)F)cc45)C[C@@H]3C2)c[nH]1 (single isomer, unassigned) [Compound 67]	0.027	0.32	–	3.2	> 15
FC(F)(F)Cc1cc2c(N3CC[C@@H]4[C@@H](CCN4Cc4ccc(Cl)nc4)C3)ncnc2s1 (single isomer, unassigned) [Compound 10]	0.118	4.4	0.25	2	–
Fc1ccc(CN2CC[C@@H]3CN(c4ncnc5sc(CC(F)(F)F)cc45)C[C@@H]3C2)cn1 (single isomer, unassigned) [Compound 37]	0.041	0.48	–	1.3	> 15
OCCn1cccc1CN1CCC2CN(c3ncnc4sc(CC(F)(F)F)cc34)CCC21 (stereo not drawn) [Compound 23]	0.366	1.7	0.22	4.3	–
COc1ncccc1CN1CC[C@@H]2CN(c3ncnc4sc(CC(F)(F)F)cc34)C[C@@H]2C1 (single isomer, unassigned) [Compound 44]	0.087	2.1	–	–	> 15
Cc1ncccc1CN1CC[C@@H]2CN(c3ncnc4sc(CC(F)(F)F)cc34)C[C@@H]2C1 (single isomer, unassigned) [Compound 60]	0.095	0.66	–	0.22	1.8
FC(F)(F)Cc1cc2c(N3C[C@H]4CCN(Cc5ccncc5)C[C@H]4C3)ncnc2s1 (single isomer, unassigned) [Compound 64]	0.025	0.55	–	0.77	8.4
Cn1cc(CN2CC[C@H]3CN(c4ncnc5sc(CC(F)(F)F)cc45)CC[C@H]32)cn1 (single isomer, unassigned) [Compound 9]	0.106	3.5	0.098	10.3	–
FC(F)(F)Cc1cc2c(N3CC[C@H]4[C@H](CCN4Cc4ccc(Cl)nc4)C3)ncnc2s1 (single isomer, unassigned) [Compound 11]	0.68	> 15	0.59	> 15	–
FC(F)(F)Cc1cc2c(N3C[C@H]4CCN(CC5CCOC5)C[C@H]4C3)ncnc2s1 (single isomer, unassigned) [Compound 101]	0.028	0.41	–	–	> 15
COc1ccc(CN2CC[C@@H]3CN(c4ncnc5sc(CC(F)(F)F)cc45)C[C@@H]3C2)cn1 (single isomer, unassigned) [Compound 45]	0.016	0.28	–	1.8	> 15
Cc1nc(CN2CC[C@H]3CN(c4ncnc5sc(CC(F)(F)F)cc45)CC[C@H]32)cs1 (single isomer, unassigned) [Compound 12]	0.86	2.1	0.43	9.2	–

The remaining molecules from weak to strong by IC50 [1], led by results:

IC50 [1] [µM]	IC50 (MV-4-11) [µM]	IC50 [2] [µM]	IC50 (MOLM14) [µM]	SMILES	IC50 (KG1) [µM]
1.13	> 15	0.52	> 15	Cn1cc(CN2CC3CN(c4ncnc5sc(CC(F)(F)F)cc45)CC3C2)cn1 (stereo not drawn) [Compound 18]	–
0.165	0.67	–	–	Cc1cncc(CN2CC[C@@H]3CN(c4ncnc5sc(CC(F)(F)F)cc45)C[C@@H]3C2)c1 (single isomer, unassigned) [Compound 39]	2.5
0.069	8.3	0.23	12.8	FC(F)(F)Cc1cc2c(N3CC[C@H]4[C@H](CCN4Cc4ccccc4)C3)ncnc2s1 (single isomer, unassigned) [Compound 4]	–
0.067	0.59	–	2.1	CCCN1CC[C@@H]2CN(c3ncnc4sc(CC(F)(F)F)cc34)C[C@@H]2C1 (single isomer, unassigned) [Compound 57]	> 15
0.063	0.99	–	–	CC(C)(CO)CN1CC[C@@H]2CN(c3ncnc4sc(CC(F)(F)F)cc34)C[C@@H]2C1 (single isomer, unassigned) [Compound 58]	> 15
0.061	2	0.089	3.8	FC(F)(F)Cc1cc2c(N3CC[C@@H]4[C@@H](CCN4Cc4ccccc4)C3)ncnc2s1 (single isomer, unassigned) [Compound 3]	–
0.061	0.65	–	0.8	COc1cc(CN2CC[C@@H]3CN(c4ncnc5sc(CC(F)(F)F)cc45)C[C@@H]3C2)ccn1 (single isomer, unassigned) [Compound 63]	9.5
0.057	0.93	–	–	FC(F)(F)Cc1cc2c(N3C[C@H]4CCN(CC5CCCCO5)C[C@H]4C3)ncnc2s1 (single isomer, unassigned) [Compound 100]	> 15
